In US20240016777A1, “COMPOUNDS AND METHODS FOR TREATING VIRAL INFECTIONS” (priority 2020, published 2024):
Where two headings read alike, the source gives them in different places.

What was measured:
Mpro [1] = target: T1, Mpro (Severe acute respiratory syndrome coronavirus 2 (2019-nCoV) (SARS-CoV-2), UniProt P0DTD1); assay type: biochemical; conditions: jump dilution
SARS-CoV-2 [2] = test: Vero E6-based SARS-CoV-2 replication assay (immunofluorescence of nucleocapsid protein); assay type: cell-based; conditions: Vero E6 cells
SARS-CoV-2 M^pro = SARS-CoV-2 M^pro (Severe acute respiratory syndrome coronavirus 2 (2019-nCoV) (SARS-CoV-2), UniProt P0DTD1); test: biochemical
Mpro [3] = target: T1, Mpro; test: Label free mass spectrometry assay of Mpro substrate cleavage; assay type: biochemical; conditions: 50 μM concentration
SARS-CoV-2 [4] = conditions: human ACE2 transgenic mouse, 50-200 mg/kg, crystal form; cited from earlier work
Vero E6 cells [5] = test: Toxicity in Vero E6 cells / cell culture
Vero E6 cells [6] = test system: Vero E6 cells
[7] = compound at 17 μM, duplicates, 20 min pre-incubation, read-out: Activity (% enzyme activity by fluorescence relative to initial enzyme activity)
[8] = read-out: Activity (% enzyme activity by fluorescence relative to initial enzyme activity), compound at 17 μM, duplicates, 20 min pre-incubation
[9] = compound at 17 μM, duplicates, 20 min pre-incubation

SMILES: O=c1c(O)c(-c2cc(O)c(O)c(O)c2)oc2cc(O)cc(O)c12 [myricetin, reference compound]
- Reversibility of Mpro inhibition by dilution (Mpro [1]): resistant to dilution
- Inhibition of SARS-CoV-2 replication (in words) (SARS-CoV-2 [2]): somewhat less potently than PGHG, baicalein, or apigenin
- Inhibition of SARS-CoV-2 replication (in words) (SARS-CoV-2 [2]; listed as Myricetin): inhibitory activity only at 100 μM

SMILES: O=c1cc(-c2ccc(O)c(-c3c(O)cc(O)c4c(=O)cc(-c5ccc(O)cc5)oc34)c2)oc2cc(O)cc(O)c12 [Amentoflavone]
- IC50 (SARS-CoV-2 M^pro; IC50, compounds evaluated at 0.015-300 μM): 8 µM
- IC50 (SARS-CoV-2 M^pro; IC50 for inhibition of Mpro): 5 to 15 µM
- remaining activity at 17 µM (SARS-CoV-2 M^pro; [7]): 10 to 80%
- Reversibility of Mpro inhibition by dilution (Mpro [1]): completely reversible
- Inhibition of Mpro activity (mass spectrometry) (Mpro [3]): completely inhibited

SMILES: O=c1cc(-c2ccccc2)oc2cc(O)c(O)c(O)c12 [Baicalein]
- Inhibition of SARS-CoV-2 replication (in words) (SARS-CoV-2 [2]): antiviral activity
- Body weight after SARS-CoV-2 infection (SARS-CoV-2 [4]): prevented reduction in body weight
- Lung injury resulting from SARS-CoV-2 infection (SARS-CoV-2 [4]): decreased lung injury

SMILES: COc1cc(-c2oc3cc(OC(C)=O)c(OC)c(OC(C)=O)c3c(=O)c2OC)ccc1OC(C)=O [Jaceidin triacetate]
- Toxicity in cells (Vero E6 cells [5]): toxic
- Mpro inhibitory activity (comparison in words) (SARS-CoV-2 M^pro): comparable to or better than the previously described Mpro inhibitors baicalein and myricetin
- remaining activity at 17 µM (SARS-CoV-2 M^pro; [7]): < 10%
- IC50 (SARS-CoV-2 M^pro; read-out: IC50 for inhibition of Mpro): 5 to 15 µM
- Inhibition of Mpro activity (mass spectrometry) (Mpro [3]): completely inhibited

SMILES: O=c1c(-c2c(O)cc(O)c3c(=O)cc(-c4ccc(O)cc4)oc23)c(-c2ccc(O)cc2)oc2cc(O)cc(O)c12 [3,8′-Biapigenin]
- IC50 (SARS-CoV-2 M^pro; IC50 for inhibition of Mpro): 5 to 15 µM
- Inhibition of Mpro activity (mass spectrometry) (Mpro [3]): completely inhibited

SMILES: C=C(C)C(O)Cc1c(O)c(CC=C(C)C)c2occ(-c3ccc(O)c(O)c3)c(=O)c2c1O (stereo not drawn) [millewanin G]
- remaining activity at 17 µM (SARS-CoV-2 M^pro; [8]): > 80%

SMILES: CC(C)=CCc1c(O)cc2occ(-c3ccc(O)cc3)c(=O)c2c1O [Wighteone]
- remaining activity at 17 µM (SARS-CoV-2 M^pro; [8]): > 80%

SMILES: CC(C)=CCc1cc(-c2coc3cc(O)cc(O)c3c2=O)cc(O)c1O [glycyrrhisoflavone]
- remaining activity at 17 µM (SARS-CoV-2 M^pro; [7]): > 80%

SMILES: O=c1cc(-c2ccc(O)cc2)oc2cc(O)cc(O)c12 [apigenin]
- Toxicity in cells (Vero E6 cells [6]): some toxicity
- Mpro inhibitory activity (comparison in words) (SARS-CoV-2 M^pro): somewhat less potent
- IC50 (SARS-CoV-2 M^pro; IC50 for inhibition of Mpro): 17.4 µM
- Reversibility of Mpro inhibition by dilution (Mpro [1]): completely reversible
- Inhibition of SARS-CoV-2 replication (in words) (SARS-CoV-2 [2]): inhibits viral replication at concentrations at doses that are not toxic
- Inhibition of SARS-CoV-2 replication at 50 μM (SARS-CoV-2 [2]; 50 μM): somewhat better than baicalein

SMILES: CC(C)=CCc1c(O[C@@H]2O[C@H](CO)[C@@H](O)[C@H](O)[C@H]2O)cc(O)c2c(=O)c(O[C@@H]3O[C@@H](C)[C@H](O)[C@@H](O)[C@H]3O[C@@H]3O[C@@H](C)[C@H](O)[C@@H](O)[C@H]3O)c(-c3ccc(O)cc3)oc12 [Baohuoside V]
- remaining activity at 17 µM (SARS-CoV-2 M^pro; [8]): 10 to 80%

SMILES: CC(C)=CCCC1(C)C=Cc2c(O)ccc(-c3oc4cc(O)cc(O)c4c(=O)c3CC=C(C)C)c2O1 (stereo not drawn) [Sanggenone K]
- remaining activity at 17 µM (SARS-CoV-2 M^pro; [8]): > 80%

SMILES: C[C@@H]1O[C@@H](OC[C@H]2O[C@@H](Oc3c(-c4ccc(O)cc4)oc4cc(O)cc(O)c4c3=O)[C@H](O)[C@@H](O)[C@H]2O)[C@H](O)[C@H](O)[C@H]1O [Biorobin]
- Activity (% enzyme activity by fluorescence relative to initial enzyme activity) (SARS-CoV-2 M^pro; [9]): +++ (<10% enzyme activity as indicated by fluorescence measurements)
- IC50 (SARS-CoV-2 M^pro; compounds evaluated at 0.015-300 μM, read-out: IC50): 7 µM

SMILES: COc1c(-c2ccc(O)cc2)oc2cc(O)c(CC=C(C)C)c(O)c2c1=O [Topazolin]
- remaining activity at 17 µM (SARS-CoV-2 M^pro; [8]): > 80%

SMILES: CC(C)=CCc1cc(-c2oc3cc(O)c(CC=C(C)C)c(O)c3c(=O)c2O)ccc1O [Glyasperin A]
- remaining activity at 17 µM (SARS-CoV-2 M^pro; [8]): > 80%

SMILES: CC(C)=CCc1cc(-c2cc(=O)c3c(O)cc(O)c(CC=C(C)C)c3o2)cc(O)c1O [Epimedokoreanin B]
- remaining activity at 17 µM (SARS-CoV-2 M^pro; [8]): > 80%

SMILES: CC(C)=CCc1c(O)c(CC=C(C)C)c2c(c1O)C(=O)C[C@@H](c1ccc(O)cc1O)O2 [Kushenol E]
- remaining activity at 17 µM (SARS-CoV-2 M^pro; [8]): 10 to 80%

SMILES: C=C(C)[C@H](CC=C(C)C)Cc1c(O)cc(OC)c2c1O[C@H](c1ccc(O)cc1O)[C@H](O)C2=O [Kushenol N]
- remaining activity at 17 µM (SARS-CoV-2 M^pro; [8]): > 80%

SMILES: CC(C)=CCc1c(O)cc2occ(-c3ccc4c(c3)C=CC(C)(C)O4)c(=O)c2c1O [Isochandalone]
- remaining activity at 17 µM (SARS-CoV-2 M^pro; [8]): > 80%

SMILES: CC(C)=CCc1cc(-c2coc3c(CC=C(C)C)c(O)c(CC=C(C)C)c(O)c3c2=O)ccc1O [Euchrenone B1]
- remaining activity at 17 µM (SARS-CoV-2 M^pro; [8]): > 80%

SMILES: C=C(C)[C@H](CC=C(C)C)Cc1c(O)cc(O)c2c1O[C@H](c1ccc(O)cc1OC)CC2=O [Isokurarinone]
- Activity (% enzyme activity by fluorescence relative to initial enzyme activity) (SARS-CoV-2 M^pro; [9]): ++ (enzyme activity as indicated by fluorescence measurements ≥10% and <80%)
